Experimental data: US10792284B2, “Synergistic cancer treatment” (Memorial Sloan Kettering Cancer Center, priority 2015, dated 2020)
Entries after “also recorded” stand apart in the source; their conditions may differ.

Columns and labels:
[1] = system: KRAS-mutant lung cancer cell lines; assay: Clonogenic assay; assay type: cell-based, human; details: for sensitization to trametinib (MEK inhibition) in combination: combined with trametinib, KRAS-mutant lung cancer cell lines
Method: All experiments were performed at least three times. Representative experiments are shown.

[2] = system: BRAF and KRAS-mutant cancers of multiple lineages; details: GDSC dataset; BRAF-mutant compared with KRAS-mutant tumor cells; cited from earlier work

Compound | sensitization to trametinib (MEK inhibition) in combination [1] | sensitivity to MEK inhibitor (IC50), BRAF-mutant versus KRAS-mutant tumor cells [2] | other results
CCN1CCN(c2ccc(Nc3cc(N(C)C(=O)Nc4c(Cl)c(OC)cc(OC)c4Cl)ncn3)cc2)CC1 [BGJ398] | comparable effects; also recorded: confer sensitivity to MEK inhibition | – | –
COCC(=O)NC/C=C/c1ccc2ncnc(Nc3ccc(Oc4ccc(C)nc4)c(C)c3)c2c1 [CP724714] | – | – | synergy when combined with Trametinib ([1]; H23 cells, combined with Trametinib): no synergy
O=C(NOC[C@H](O)CO)c1ccc(F)c(F)c1Nc1ccc(I)cc1F [PD0325901] | – | significantly more sensitive | –
COc1cc(F)c(F)c(Nc2ccc(I)cc2F)c1NS(=O)(=O)C1(C[C@H](O)CO)CC1 [RDEA119] | – | significantly more sensitive | –
O=C(Nc1ccc2[nH]nc(-c3ccncc3)c2c1)[C@@H]1CCN(CC(=O)N2CCN(c3ccc(-c4ncccn4)cc3)CC2)C1 [SCH772984] | – | – | effect of co-treatment on antiproliferative effects of Trametinib ([1]; co-treatment with Trametinib compared with Trametinib alone): enhances the antiproliferative effects of trametinib
AZD4547 | comparable effects; also recorded: confer sensitivity to MEK inhibition | – | –
